Results taken from patent EP2508198B1, “Peptides for suppressing inflammation reactions in hemodialysis” (Fresenius Medical Care Deutschland GmbH, priority 2011, dated 2014).
Residues, ends and D or L forms follow the SMILES beside them.

Experiments:
[1] = test system: LPS-induced TNF-α release; assay: Ex vivo stimulation of human PBMCs with LPS (pre-incubation or co-stimulation with peptides), TNF-α ELISA of supernatants; format: cell-based; parameters: TNF-α, Donor 2 / TNF-α, Donor 3 / TNF-α, Donor 4 / TNF-α, Donor 5 / TNF-α, Donor 6 / TNF-α, MV+SD: unit not given here; conditions: for TNF-α, %: % of LPS control c (100.00); for effect on LPS-induced TNF-α release ("inflammation"): pre-stimulation or co-incubation
Procedure: Ex vivo stimulation of human peripheral blood mononuclear cells (PBMCs)
For the stimulation of PBMCs the following concentrations were chosen: • LPS 1 ng/ml alone • α-MSH • ∘ 1µM; 10µM; 100µM • Peg-KPV (pegylated tripeptide) • ∘ 1µM; 10µM; 100µM; 1000µM
The stimulation procedure was as described below:
All cells were incubated for 24h and centrifuged at 1700 rpm and supernatants were used for TNF- α ELISA measurement according to manufacturer's protocols.

TNF-α = assay: Whole blood from uremic patients stimulated ex vivo with LPS with or without peptides (non heated and heated), TNF-α ELISA; format: cell-based, human; conditions: whole blood of uremic patients, LPS 1 ng/ml, 24 h; average over the tested concentrations
Procedure: (§1) Whole blood studies with blood from uremic patients including heat sterilization experiments
(§2) A first goal of this experiment was to test whether the three amino acid antiinflammatory peptide KPV (unpegylated and pegylated version "monopeptide") will retain its activity under conditions of steam sterilization at 125°C for 15 min used in the production process of dialysis modules. A second goal was to study the anti-inflammatory effect of alpha-MSH and the peptides in uremic patients, which represent the real clinical situation.
(§3) To perform this experiment whole blood samples were taken from voluntary uremic patients (n=10) and subsequently stimulated ex vivo with lipopolysaccharide (LPS) with or without alpha-MSH, KPV or pegylated KPV (non heated and heated) and TNF-α and IL-6 release was determined by ELISA.
(§4) 25 ml blood from 10 uremic patients (dialysis patients treated at the hospital in Konstanz, Germany) was drawn and blood values were analyzed immediately. Blood was 1:10 diluted with PBS buffer and each stimulation condition was performed in triplicates and incubated at 200 µl in 96 well plates. […]

IL-6 = assay: Whole blood from uremic patients stimulated ex vivo with LPS with or without peptides (non heated and heated), IL-6 ELISA; format: cell-based, human; conditions: whole blood of uremic patients, LPS 1 ng/ml, 24 h; average over the tested concentrations
Procedure: as §1, §2, §3, §4

[2] = LPS 3 h pre-incubation, then LPS+peptide 24h, peptide 1 µM
[3] = LPS 3 h pre-incubation, then LPS+peptide 24h, peptide 10 µM
[4] = LPS 3 h pre-incubation, then LPS+peptide 24h, peptide 100 µM
[5] = LPS + peptide simultaneously, 24h, peptide 1 µM
[6] = LPS + peptide simultaneously, 24h, peptide 10 µM
[7] = LPS + peptide simultaneously, 24h, peptide 100 µM
[8] = mean of donors, LPS 3 h pre-incubation, then LPS+peptide 24h, peptide 1 µM
[9] = mean of donors, LPS 3 h pre-incubation, then LPS+peptide 24h, peptide 10 µM
[10] = mean of donors, LPS 3 h pre-incubation, then LPS+peptide 24h, peptide 100 µM
[11] = mean of donors, LPS + peptide simultaneously, 24h, peptide 1 µM
[12] = mean of donors, LPS + peptide simultaneously, 24h, peptide 10 µM
[13] = mean of donors, LPS + peptide simultaneously, 24h, peptide 100 µM
[14] = LPS 3 h pre-incubation, then LPS+peptide 24h, peptide 1000 µM
[15] = LPS + peptide simultaneously, 24h, peptide 1000 µM

For α-MSH [α-MSH Sigma], the “TNF-α, %” value [1, 2] was 89.62%, the “TNF-α, %” value [1, 3] was 81.56% and the “TNF-α, %” value [1, 4] was 54.57%. For the same compound, the “TNF-α, %” value [1, 5] was 70.97%, the “TNF-α, %” value [1, 6] was 61.67% and the “TNF-α, %” value [1, 7] was 32.86%. For the same compound, the “TNF-α, Donor 2” value [1, 2] was 5005, the “TNF-α, Donor 3” value [1, 2] was 4345 and the “TNF-α, Donor 4” value [1, 2] was 3968. For the same compound, the “TNF-α, Donor 5” value [1, 2] was 2070, the “TNF-α, Donor 6” value [1, 2] was 4286 and the “TNF-α, Donor 2” value [1, 3] was 4193. For the same compound, the “TNF-α, Donor 3” value [1, 3] was 3883, the “TNF-α, Donor 4” value [1, 3] was 3674 and the “TNF-α, Donor 5” value [1, 3] was 1799. The “TNF-α, Donor 6” value [1, 3] was 4356, the “TNF-α, Donor 2” value [1, 4] was 3009 and the “TNF-α, Donor 3” value [1, 4] was 2886. The “TNF-α, Donor 4” value [1, 4] was 2073, the “TNF-α, Donor 5” value [1, 4] was 942 and the “TNF-α, Donor 6” value [1, 4] was 2069. The “TNF-α, Donor 2” value [1, 5] was 4098, the “TNF-α, Donor 3” value [1, 5] was 3273 and the “TNF-α, Donor 4” value [1, 5] was 3116. For the same compound, the “TNF-α, Donor 5” value [1, 5] was 1319, the “TNF-α, Donor 6” value [1, 5] was 3100 and the “TNF-α, Donor 2” value [1, 6] was 3734. The “TNF-α, Donor 3” value [1, 6] was 2776, the “TNF-α, Donor 4” value [1, 6] was 2568 and the “TNF-α, Donor 5” value [1, 6] was 1237. For the same compound, the “TNF-α, Donor 6” value [1, 6] was 2638, the “TNF-α, Donor 2” value [1, 7] was 1207 and the “TNF-α, Donor 3” value [1, 7] was 2337. For the same compound, the “TNF-α, Donor 4” value [1, 7] was 1248, the “TNF-α, Donor 5” value [1, 7] was 713 and the “TNF-α, Donor 6” value [1, 7] was 1386. For the same compound, the “TNF-α, MV+SD” value [1, 8] was 3934.8, the “TNF-α, MV+SD” value [1, 9] was 3581 and the “TNF-α, MV+SD” value [1, 10] was 2395.8. For the same compound, the “TNF-α, MV+SD” value [1, 11] was 2981.2, the “TNF-α, MV+SD” value [1, 12] was 2590.6 and the “TNF-α, MV+SD” value [1, 13] was 1380.2. The “effect on LPS-induced TNF-α release ("inflammation")” value [1] was “inhibitory effect”.

`CC(=O)N[C@@H](CCCCN)C(=O)N1CCC[C@H]1C(=O)N[C@H](C(N)=O)C(C)C` [KPV, Ac-Lys-Pro-Val-NH2] (Ac-Lys-Pro-Val-NH2) was tested, and the “TNF-α, %” value [1, 2] was 85.28%, the “TNF-α, %” value [1, 3] was 83.53% and the “TNF-α, %” value [1, 4] was 73.40%. The “TNF-α, %” value [1, 14] was 38.98%, the “TNF-α, %” value [1, 5] was 78.64% and the “TNF-α, %” value [1, 6] was 74.30%. The “TNF-α, %” value [1, 7] was 65.76%, the “TNF-α, %” value [1, 15] was 25.35% and the “TNF-α, Donor 2” value [1, 2] was 4025. For the same compound, the “TNF-α, Donor 3” value [1, 2] was 4554, the “TNF-α, Donor 4” value [1, 2] was 3541 and the “TNF-α, Donor 5” value [1, 2] was 2301. For the same compound, the “TNF-α, Donor 6” value [1, 2] was 4299, the “TNF-α, Donor 2” value [1, 3] was 4126 and the “TNF-α, Donor 3” value [1, 3] was 4387. The “TNF-α, Donor 4” value [1, 3] was 3666, the “TNF-α, Donor 5” value [1, 3] was 2209 and the “TNF-α, Donor 6” value [1, 3] was 3949. The “TNF-α, Donor 2” value [1, 4] was 3542, the “TNF-α, Donor 3” value [1, 4] was 5022 and the “TNF-α, Donor 4” value [1, 4] was 2886. For the same compound, the “TNF-α, Donor 5” value [1, 4] was 1931, the “TNF-α, Donor 6” value [1, 4] was 3731 and the “TNF-α, Donor 3” value [1, 14] was 1816. For the same compound, the “TNF-α, Donor 4” value [1, 14] was 1494, the “TNF-α, Donor 5” value [1, 14] was 1054 and the “TNF-α, Donor 6” value [1, 14] was 2482. For the same compound, the “TNF-α, Donor 2” value [1, 5] was 3426, the “TNF-α, Donor 3” value [1, 5] was 3955 and the “TNF-α, Donor 4” value [1, 5] was 3702. The “TNF-α, Donor 5” value [1, 5] was 1893, the “TNF-α, Donor 6” value [1, 5] was 3541 and the “TNF-α, Donor 2” value [1, 6] was 3154. The “TNF-α, Donor 3” value [1, 6] was 3907, the “TNF-α, Donor 4” value [1, 6] was 3369 and the “TNF-α, Donor 5” value [1, 6] was 1706. The “TNF-α, Donor 6” value [1, 6] was 3470, the “TNF-α, Donor 2” value [1, 7] was 2562 and the “TNF-α, Donor 3” value [1, 7] was 3505. The “TNF-α, Donor 4” value [1, 7] was 3077, the “TNF-α, Donor 5” value [1, 7] was 1525 and the “TNF-α, Donor 6” value [1, 7] was 3142. For the same compound, the “TNF-α, Donor 3” value [1, 15] was 931, the “TNF-α, Donor 4” value [1, 15] was 934 and the “TNF-α, Donor 5” value [1, 15] was 594. For the same compound, the “TNF-α, Donor 6” value [1, 15] was 1801, the “TNF-α, MV+SD” value ([1]; mean of donors (Donor 2 not done), LPS 3 h pre-incubation, then LPS+peptide 24h, peptide 1000 µM) was 1711.5 and the “TNF-α, MV+SD” value ([1]; mean of donors (Donor 2 not done), LPS + peptide simultaneously, 24h, peptide 1000 µM) was 1065. For the same compound, the “TNF-α, MV+SD” value [1, 8] was 3744, the “TNF-α, MV+SD” value [1, 9] was 3667.4 and the “TNF-α, MV+SD” value [1, 10] was 3222.4. For the same compound, the “TNF-α, MV+SD” value [1, 11] was 3303.4, the “TNF-α, MV+SD” value [1, 12] was 3121.2 and the “TNF-α, MV+SD” value [1, 13] was 2762.2. For the same compound, the “effect on LPS-induced TNF-α release ("inflammation")” value [1] was “inhibitory effect”, the “average inhibition for TNF-α” value (TNF-α) was “around 30%” and the “average inhibition for IL-6” value (IL-6) was “around 20%”.
